Structures are written as SMILES. Bounds are passed on as bounds.

The EC50 is the concentration at which the effect is half-maximal.

For the first assay, the target named is Steroidogenic factor 1 (Homo sapiens, UniProt Q13285). Briefly: SF-1 driven luciferase reporter response, dose response, counter-screen for RORA activator project, CHO-K1 cells (AID 695).
Sequence of Steroidogenic factor 1 (Q13285 whole entry): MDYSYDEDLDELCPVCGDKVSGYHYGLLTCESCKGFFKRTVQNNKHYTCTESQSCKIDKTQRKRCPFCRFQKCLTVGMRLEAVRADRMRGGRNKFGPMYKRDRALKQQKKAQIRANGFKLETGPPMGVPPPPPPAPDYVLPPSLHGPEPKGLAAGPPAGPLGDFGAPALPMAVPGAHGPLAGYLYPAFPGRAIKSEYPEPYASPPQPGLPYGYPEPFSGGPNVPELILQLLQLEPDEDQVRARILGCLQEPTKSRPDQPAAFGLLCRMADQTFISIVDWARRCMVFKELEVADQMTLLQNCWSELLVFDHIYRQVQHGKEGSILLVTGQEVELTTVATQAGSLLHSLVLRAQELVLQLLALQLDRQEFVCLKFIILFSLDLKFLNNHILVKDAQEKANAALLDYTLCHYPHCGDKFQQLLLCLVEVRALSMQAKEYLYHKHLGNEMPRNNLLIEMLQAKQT
Details: not given
(In a reporter assay the amount or activity of a reporter protein is the signal.)
The molecule `O=C1N(CCCN2C(=O)C3(OCCO3)c3ccccc32)c2ccccc2C12OCCO2` [1'-[3-(2'-ketospiro[1,3-dioxolane-2,3'-indoline]-1'-yl)propyl]spiro[1,3-dioxolane-2,3'-indoline]-2'-one] had a 50% effective concentration (EC50) of over 99000 nM.

Turning to `COc1cc(C)c(C(C)C)cc1S(=O)(=O)n1cnc(C)c1` [1-(2-methoxy-4-methyl-5-propan-2-yl-phenyl)sulfonyl-4-methyl-imidazole], the midpoint of the response, the EC50, lay at 1320 nM. On the same count and under the same terms, then `CN1CCN(S(=O)(=O)c2ccc(Br)s2)CC1` [1-(5-bromanylthiophen-2-yl)sulfonyl-4-methyl-piperazine], with over 99000 nM; and `Clc1ccccc1OCCn1cnc2ccccc21` [1-[2-(2-chloranylphenoxy)ethyl]benzimidazole], with 3670 nM. Consider `O=C(c1ccc(-c2nnc(-c3ccccc3)o2)cc1)N1CCCCCC1` [1-azepanyl-[4-(5-phenyl-1,3,4-oxadiazol-2-yl)phenyl]methanone], for which a half-maximal effect (EC50) was put at 252 nM. In turn, `Cn1c(SCc2ccccc2F)nc2cccnc21` [2-(2-Fluoro-benzylsulfanyl)-3-methyl-3H-imidazo[4,5-b]pyridine] came in with a 50% effective concentration (EC50) of over 1220 nM. On the same count and under the same terms, then `Clc1ccc(-c2nnc(-c3ccccc3Cl)o2)cc1` [2-(2-chlorophenyl)-5-(4-chlorophenyl)-1,3,4-oxadiazole], with 233 nM; and `COc1ccc(Nc2oc(-c3ccccc3Cl)nc2C#N)cc1` [2-(2-chlorophenyl)-5-(4-methoxyanilino)-1,3-oxazole-4-carbonitrile], with 2740 nM. Still for that read-out and setting: then `CCCCOC(=O)C(C)Oc1ccc(=O)n(-c2ccccc2)n1` (stereo unspecified) [2-(6-keto-1-phenyl-pyridazin-3-yl)oxypropionic acid butyl ester], with over 99000 nM. Same read-out and setting: under `CCOC(=O)c1ccccc1NC(=O)CSc1nnnn1C1CCCCC1` [2-[2-(1-Cyclohexyl-1H-tetrazol-5-ylsulfanyl)-acetylamino]-benzoic acid ethyl ester] stands over 99000 nM; under `Cc1cc(NCCOCCO)n2ncc(-c3ccc(Cl)cc3)c2n1` [2-[2-[[3-(4-chlorophenyl)-5-methyl-7-pyrazolo[1,5-a]pyrimidinyl]amino]ethoxy]ethanol], 485 nM; under `CCCCOc1ccc(-c2nnn(CC(=O)NCc3ccco3)n2)cc1` [2-[5-(4-Butoxy-phenyl)-tetrazol-2-yl]-N-furan-2-ylmethyl-acetamide], 1880 nM. As to `Nc1c(C(=O)NCCN2CCOCC2)c2nc3ccccc3nc2n1-c1ccc2c(c1)OCO2` [2-amino-1-(1,3-benzodioxol-5-yl)-N-(2-morpholin-4-ylethyl)pyrrolo[3,2-b]quinoxaline-3-carboxamide], the EC50 was over 11000 nM. In the case of `COCCOC(=O)c1[nH]c2c(c1C)C(=O)CC(c1cc(OC)ccc1OC)C2` (stereo unspecified) [2-methoxyethyl 6-(2,5-dimethoxyphenyl)-3-methyl-4-oxo-1,5,6,7-tetrahydroindole-2-carboxylate], a half-maximal response (EC50) required 7670 nM. Still for that read-out and setting: then `Cc1cc(N)c(NC2=CC(=O)CC(C)(C)C2)cc1C` [3-(2-amino-4,5-dimethyl-anilino)-5,5-dimethyl-cyclohex-2-en-1-one], with over 11000 nM.

For the molecule `CC(=O)C(C)Oc1ccc2c3c(c(=O)oc2c1C)CCCC3` (stereo unspecified) [3-(2-keto-1-methyl-propoxy)-4-methyl-7,8,9,10-tetrahydrobenzo[c]chromen-6-one], the concentration giving a half-maximal response (EC50) worked out at 807 nM.

In turn, `COc1cccc(-c2noc(-c3cccs3)n2)c1` [3-(3-methoxyphenyl)-5-(2-thienyl)-1,2,4-oxadiazole] returned an EC50 of 226 nM.

Consider `COc1cccc(-c2noc(-c3cccnc3)n2)c1` [3-(3-methoxyphenyl)-5-(3-pyridinyl)-1,2,4-oxadiazole], for which the half-maximal effective concentration (EC50) turned out to be 1740 nM. Same read-out and setting: under `O=C1OC(N2CCN(Cc3ccccc3)CC2)c2ccccc21` (stereo unspecified) [3-(4-benzylpiperazin-1-yl)-3H-2-benzofuran-1-one] stands over 99000 nM; under `Cc1cc(NC(=O)c2oc3ccccc3c2C)ccc1-n1cnnn1` [3-Methyl-benzofuran-2-carboxylic acid (3-methyl-4-tetrazol-1-yl-phenyl)-amide], 3240 nM; under `CCn1c(-c2ccc(N(C)C)cc2)nc2ccccc21` [4-(1-ethyl-2-benzimidazolyl)-N,N-dimethylaniline], 540 nM.

Molecule `COc1ccccc1-c1nc(-c2ccncc2)no1` [4-[5-(2-Methoxy-phenyl)-[1,2,4]oxadiazol-3-yl]-pyridine] had an EC50 of 1240 nM. Same read-out and setting: under `Cc1ccccc1Cn1ccc(NC(=O)c2onc(C)c2Cl)n1` [4-chloranyl-3-methyl-N-[1-[(2-methylphenyl)methyl]pyrazol-3-yl]-1,2-oxazole-5-carboxamide] stands 7180 nM; under `COc1ccc(C(=O)Nc2cc(C)on2)cc1` [4-methoxy-N-(5-methyl-1,2-oxazol-3-yl)benzamide], 918 nM; under `Cc1ccc(-c2nc(C#N)c(NCc3ccco3)o2)cc1` [5-(2-furanylmethylamino)-2-(4-methylphenyl)-4-oxazolecarbonitrile], 3420 nM. The same measure, in the same setting: under `Oc1coc2ccc(OCc3ccc(F)cc3)cc12` [5-(4-fluorobenzyl)oxycoumaran-3-one] stands 1710 nM; under `CCOc1ccc(-c2nc(C#N)c(NC3CC3)o2)cc1` [5-(cyclopropylamino)-2-(4-ethoxyphenyl)-1,3-oxazole-4-carbonitrile], 4020 nM; under `Cc1ccc2nc(Nc3ccc4[nH]c(O)nc4c3)c(-n3nc(C)cc3C)nc2c1` [5-[[3-(3,5-dimethyl-1-pyrazolyl)-6-methyl-2-quinoxalinyl]amino]-1,3-dihydrobenzimidazol-2-one], over 1220 nM. Still for that read-out and setting: under `COc1cccc(NC(=O)c2nnn(Cc3ccc(Br)cc3F)c2N)c1` [5-amino-1-(4-bromo-2-fluoro-benzyl)-N-(3-methoxyphenyl)triazole-4-carboxamide] stands 4380 nM; under `O=C(Nc1ccc(N2CCCCC2)cc1)c1cncc(Br)c1` [5-bromanyl-N-(4-piperidin-1-ylphenyl)pyridine-3-carboxamide], 1060 nM.

Regarding `CCOc1cc(N2CCOCC2)c(OCC)cc1NS(=O)(=O)c1ccc(Cl)s1` [5-chloranyl-N-(2,5-diethoxy-4-morpholin-4-yl-phenyl)thiophene-2-sulfonamide], the EC50 was found to be 1220 nM.

`CCN(CCCNC(=O)c1cn(CC)c2ccc(S(=O)(=O)N(C)C)cc2c1=O)c1cccc(C)c1` [6-(dimethylsulfamoyl)-1-ethyl-N-[3-(N-ethyl-3-methyl-anilino)propyl]-4-keto-quinoline-3-carboxamide] had an EC50 of over 99000 nM. The same measure, in the same setting: under `COC(=O)c1c(NC(=O)CC2SCC(C(=O)OC)NC2=O)sc2c1CCCC2` (stereo unspecified) [6-[2-[(3-carbomethoxy-4,5,6,7-tetrahydrobenzothiophen-2-yl)amino]-2-keto-ethyl]-5-keto-thiomorpholine-3-carboxylic acid methyl ester] stands over 99000 nM; under `Cc1cccn2cc(-c3ccccc3)nc12` [8-methyl-2-phenyl-imidazo[1,2-a]pyridine], 190 nM.

The assay is the same for the next values; noted with them: inactive by the depositor's call.
Take `O=c1c2ccccc2nc2ccc(NCc3ccco3)nn12` [2-(2-furanylmethylamino)-10-pyridazino[6,1-b]quinazolinone]: the 50% effective concentration (EC50) was found to be 27300 nM. Still for that read-out and setting: then `O=C(c1ccco1)N1CCN(c2ncnc3c(-c4ccccc4)nsc23)CC1` [2-furanyl-[4-(3-phenyl-7-isothiazolo[4,5-d]pyrimidinyl)-1-piperazinyl]methanone], with 21000 nM.

For the origin of these results see BindingDB's records for doi:10.7270/Q2028PXQ (The Scripps Research Institute Molecular Screening Center, 2007).
